The values below come from US12435044B2, “Pyridazinone herbicides and pyridazinone intermediates used to prepare a herbicide” (FMC Corporation, priority 2018, dated 2025).

What all share (test): Test G preemergence, mixtures of Cpd. No. 20 with (b15C1)
Type in all cases: in vivo

Assay [1] relates to common ragweed (AMBEL; Ambrosia artemisiifolia). The text has this: (§1) This test evaluated the effect of mixtures of Cpd. No. 20 with (b15C1) on several plant species. Seeds of plant species selected from corn (ZEAMD; Zea mays, cv. ‘Pioneer 1184’), soybean (GLXMA; Glycine max, cv. Pioneer 35T58), giant foxtail (SETFA; Setaria faberi), barnyardgrass (ECHCG; Echinochloa crus-galli), large crabgrass (DIGSA; Digitaria sanguinalis), palmer amaranth (AMAPA; Amaranthus palmeri), common waterhemp (AMATU; Amaranthus rudis), and common ragweed (AMBEL; Ambrosia artemisiifolia) were planted in pots containing Tama Silt Loam soil and treated preemergence with a directed soil spray using test chemicals formulated in a non-phytotoxic solvent mixture which included a surfactant.
(§2) Treated plants and untreated controls were maintained in a greenhouse for approximately 21 d, after which time all treated plants were compared to untreated controls and visually evaluated for injury. Plant response ratings, summarized in Table G, are based on a 0 to 100 scale where 0 is no effect and 100 is complete control. A dash (-) response means no test result. Test results are presented as a mean of 4 reps.

Assay [2] relates to common waterhemp (AMATU; Amaranthus rudis).
Description: as §1, §2

Assay [3] deals with corn (ZEAMD; Zea mays, cv. ‘Pioneer 1184’).
Description: as §1, §2

Assay [4] relates to soybean (GLXMA; Glycine max, cv. Pioneer 35T58).
Description: as §1, §2

In assay [5] the test system is giant foxtail (SETFA; Setaria faberi).
Description: as §1, §2

Assay [6] has as its system barnyardgrass (ECHCG; Echinochloa crus-galli).
Description: as §1, §2

The test system of assay [7] is large crabgrass (DIGSA; Digitaria sanguinalis).
Description: as §1, §2

For the compound `Cc1ccc2ccc(C)c(-c3c(O)c(Cl)nn(C)c3=O)c2c1` [Cpd. No. 20, 6-chloro-4-(2,7-dimethyl-1-naphthalenyl)-5-hydroxy-2-methyl-3(2H)-pyridazinone], the “Plant response rating (0 to 100 scale)” value in assay [1] (Cpd. No. 20 16 g a.i./ha alone) is 48; in assay [1] (Cpd. No. 20 31 g a.i./ha alone) it was 73; in assay [1] (Cpd. No. 20 62 g a.i./ha alone), 74; in assay [2] (Cpd. No. 20 16 g a.i./ha alone) it was 55; in assay [2] (Cpd. No. 20 31 g a.i./ha alone), 96; in assay [2] (Cpd. No. 20 62 g a.i./ha alone), 99. For the same compound, the “Plant response rating (0 to 100 scale)” value in assay [3] (Cpd. No. 20 16 g a.i./ha alone) was found to be 0; in assay [3] (Cpd. No. 20 31 g a.i./ha alone) it was 0; in assay [3] (Cpd. No. 20 62 g a.i./ha alone), 0; in assay [4] (Cpd. No. 20 16 g a.i./ha alone), 0; in assay [4] (Cpd. No. 20 31 g a.i./ha alone), 18; in assay [4] (Cpd. No. 20 62 g a.i./ha alone), 24. Also, the “Plant response rating (0 to 100 scale)” value in assay [5] (Cpd. No. 20 16 g a.i./ha alone) came to 66; in assay [5] (Cpd. No. 20 31 g a.i./ha alone) it was 88; in assay [5] (Cpd. No. 20 62 g a.i./ha alone), 74; in assay [6] (Cpd. No. 20 16 g a.i./ha alone), 21; in assay [6] (Cpd. No. 20 31 g a.i./ha alone) it was 51; in assay [6] (Cpd. No. 20 62 g a.i./ha alone), 70. Further, the figures for the “Plant response rating (0 to 100 scale)” value in assay [7] (Cpd. No. 20 16 g a.i./ha alone), in assay [7] (Cpd. No. 20 31 g a.i./ha alone) and in assay [7] (Cpd. No. 20 62 g a.i./ha alone) were 9, 11 and 25, respectively.
